Measured values from patent publication US4471131A, “Novel silyl esters of N-phosphonomethylglycine” (Monsanto Company, priority 1983, dated 1984).

Tests used:
Test in all cases: post-emergence herbicidal activity, greenhouse
Type in all cases: in vivo
Barnyardgrass = system: Barnyardgrass
In short: (§1)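 Foliar spray, chamber, atomizer; plants 2–3 weeks old in topsoil pans; emulsifier ~0.4% by weight; rates as listed. Rating: injury relative to controls, ~2 and ~4 WAT.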

Sugar Beet = conditions: Table III; 2 WAT; 1.1 kg/h
In short: as §1

Common Lambsquarters = system: Common Lambsquarters
In short: as §1

Velvetleaf = system: Velvetleaf
In short: as §1

Hemp Sesbania = conditions: Table III; 2 WAT; 1.1 kg/h
In short: as §1

Panicum Spp = conditions: Table III; 2 WAT; 1.1 kg/h
In short: as §1

Canada Thistle = conditions: Table II
In short: as §1

Johnsongrass = conditions: Table II
In short: as §1

Yellow Nutsedge = conditions: Table II
In short: as §1

Wild Buckwheat = conditions: Table III; 2 WAT; 1.1 kg/h
In short: as §1

Downy Brome = system: Downy Brome
In short: as §1

Soybean = conditions: Table III; 2 WAT; 1.1 kg/h
In short: as §1

Quackgrass = conditions: Table II
In short: as §1

Large Crabgrass = conditions: Table III; 2 WAT; 1.1 kg/h
In short: as §1

Morningglory = system: Morningglory
In short: as §1

Pennsylvania Smartweed = conditions: Table II
In short: as §1

Cocklebur = system: Cocklebur
In short: as §1

Rice = conditions: Table III; 2 WAT; 1.1 kg/h
In short: as §1

In the case of `CC(C)(C)[Si](OP(=O)(O)CNCC(=O)OCCCl)(c1ccccc1)c1ccccc1` [Ex. 8, Glycine, N--((([(1,1-Dimethylethyl)Diphenylsilyl]oxy)Hydroxyphosphinyl)Methyl)-,2-Chloroethyl Ester Hydrate], the “Plant Response Index (K)” value (Barnyardgrass; Table II, 2 WAT, 5.6 kg/h) is reported as 3 (75-99% inhibition), the “Plant Response Index (K)” value (Barnyardgrass; Table II, 2 WAT, 11.2 kg/h) is reported as 2 (50-74% inhibition) and the “Plant Response Index (K)” value (Barnyardgrass; Table II, 4 WAT, 5.6 kg/h) is reported as 4 (100% inhibition). For the same molecule, the “Plant Response Index (K)” value (Barnyardgrass; Table II, 4 WAT, 11.2 kg/h) was 3 (75-99% inhibition), the “Plant Response Index (K)” value (Barnyardgrass; Table III, 2 WAT, 1.1 kg/h) was 1 (25-49% inhibition) and the “Plant Response Index (M)” value (Sugar Beet) was 0 (0-24% inhibition). For the same molecule, the “Plant Response Index (E)” value (Common Lambsquarters; Table II, 2 WAT, 5.6 kg/h) was 2 (50-74% inhibition), the “Plant Response Index (E)” value (Common Lambsquarters; Table II, 2 WAT, 11.2 kg/h) was 1 (25-49% inhibition) and the “Plant Response Index (E)” value (Common Lambsquarters; Table II, 4 WAT, 5.6 kg/h) was 2 (50-74% inhibition). The “Plant Response Index (E)” value (Common Lambsquarters; Table II, 4 WAT, 11.2 kg/h) was 1 (25-49% inhibition), the “Plant Response Index (E)” value (Common Lambsquarters; Table III, 2 WAT, 1.1 kg/h) was 3 (75-99% inhibition) and the “Plant Response Index (C)” value (Velvetleaf; Table II, 2 WAT, 5.6 kg/h) was 1 (25-49% inhibition). The “Plant Response Index (C)” value (Velvetleaf; Table II, 2 WAT, 11.2 kg/h) was 3 (75-99% inhibition), the “Plant Response Index (C)” value (Velvetleaf; Table II, 4 WAT, 5.6 kg/h) was 1 (25-49% inhibition) and the “Plant Response Index (C)” value (Velvetleaf; Table II, 4 WAT, 11.2 kg/h) was 3 (75-99% inhibition). For the same molecule, the “Plant Response Index (C)” value (Velvetleaf; Table III, 2 WAT, 1.1 kg/h) was 0 (0-24% inhibition), the “Plant Response Index (R)” value (Hemp Sesbania) was 1 (25-49% inhibition) and the “Plant Response Index (S)” value (Panicum Spp) was 1 (25-49% inhibition). The “Plant Response Index (A)” value (Canada Thistle; 2 WAT, 5.6 kg/h) was 2 (50-74% inhibition), the “Plant Response Index (A)” value (Canada Thistle; 2 WAT, 11.2 kg/h) was 2 (50-74% inhibition) and the “Plant Response Index (A)” value (Canada Thistle; 4 WAT, 5.6 kg/h) was 4 (100% inhibition). The “Plant Response Index (A)” value (Canada Thistle; 4 WAT, 11.2 kg/h) was 2 (50-74% inhibition), the “Plant Response Index (I)” value (Johnsongrass; 2 WAT, 5.6 kg/h) was 0 (0-24% inhibition) and the “Plant Response Index (I)” value (Johnsongrass; 2 WAT, 11.2 kg/h) was 1 (25-49% inhibition). For the same molecule, the “Plant Response Index (I)” value (Johnsongrass; 4 WAT, 5.6 kg/h) was 2 (50-74% inhibition), the “Plant Response Index (I)” value (Johnsongrass; 4 WAT, 11.2 kg/h) was 2 (50-74% inhibition) and the “Plant Response Index (G)” value (Yellow Nutsedge; 2 WAT, 5.6 kg/h) was 2 (50-74% inhibition). For the same molecule, the “Plant Response Index (G)” value (Yellow Nutsedge; 2 WAT, 11.2 kg/h) was 2 (50-74% inhibition), the “Plant Response Index (G)” value (Yellow Nutsedge; 4 WAT, 5.6 kg/h) was 2 (50-74% inhibition) and the “Plant Response Index (G)” value (Yellow Nutsedge; 4 WAT, 11.2 kg/h) was 3 (75-99% inhibition). The “Plant Response Index (Q)” value (Wild Buckwheat) was 0 (0-24% inhibition), the “Plant Response Index (J)” value (Downy Brome; Table II, 2 WAT, 5.6 kg/h) was 1 (25-49% inhibition) and the “Plant Response Index (J)” value (Downy Brome; Table II, 2 WAT, 11.2 kg/h) was 2 (50-74% inhibition). For the same molecule, the “Plant Response Index (J)” value (Downy Brome; Table II, 4 WAT, 5.6 kg/h) was 1 (25-49% inhibition), the “Plant Response Index (J)” value (Downy Brome; Table II, 4 WAT, 11.2 kg/h) was 3 (75-99% inhibition) and the “Plant Response Index (J)” value (Downy Brome; Table III, 2 WAT, 1.1 kg/h) was 0 (0-24% inhibition). For the same molecule, the “Plant Response Index (L)” value (Soybean) was 0 (0-24% inhibition), the “Plant Response Index (H)” value (Quackgrass; 2 WAT, 5.6 kg/h) was 3 (75-99% inhibition) and the “Plant Response Index (H)” value (Quackgrass; 2 WAT, 11.2 kg/h) was 2 (50-74% inhibition). For the same molecule, the “Plant Response Index (H)” value (Quackgrass; 4 WAT, 5.6 kg/h) was 4 (100% inhibition), the “Plant Response Index (H)” value (Quackgrass; 4 WAT, 11.2 kg/h) was 3 (75-99% inhibition) and the “Plant Response Index (T)” value (Large Crabgrass) was 2 (50-74% inhibition). For the same molecule, the “Plant Response Index (D)” value (Morningglory; Table II, 2 WAT, 5.6 kg/h) was 2 (50-74% inhibition), the “Plant Response Index (D)” value (Morningglory; Table II, 2 WAT, 11.2 kg/h) was 2 (50-74% inhibition) and the “Plant Response Index (D)” value (Morningglory; Table II, 4 WAT, 5.6 kg/h) was 2 (50-74% inhibition). For the same molecule, the “Plant Response Index (D)” value (Morningglory; Table II, 4 WAT, 11.2 kg/h) was 2 (50-74% inhibition), the “Plant Response Index (D)” value (Morningglory; Table III, 2 WAT, 1.1 kg/h) was 0 (0-24% inhibition) and the “Plant Response Index (F)” value (Pennsylvania Smartweed; 2 WAT, 5.6 kg/h) was 3 (75-99% inhibition). For the same molecule, the “Plant Response Index (F)” value (Pennsylvania Smartweed; 2 WAT, 11.2 kg/h) was 2 (50-74% inhibition), the “Plant Response Index (F)” value (Pennsylvania Smartweed; 4 WAT, 5.6 kg/h) was 4 (100% inhibition) and the “Plant Response Index (F)” value (Pennsylvania Smartweed; 4 WAT, 11.2 kg/h) was 4 (100% inhibition). The “Plant Response Index (B)” value (Cocklebur; Table II, 2 WAT, 5.6 kg/h) was 2 (50-74% inhibition), the “Plant Response Index (B)” value (Cocklebur; Table II, 2 WAT, 11.2 kg/h) was 3 (75-99% inhibition) and the “Plant Response Index (B)” value (Cocklebur; Table II, 4 WAT, 5.6 kg/h) was 3 (75-99% inhibition). The “Plant Response Index (B)” value (Cocklebur; Table II, 4 WAT, 11.2 kg/h) was 3 (75-99% inhibition), the “Plant Response Index (B)” value (Cocklebur; Table III, 2 WAT, 1.1 kg/h) was 0 (0-24% inhibition) and the “Plant Response Index (O)” value (Rice) was 0 (0-24% inhibition).
